Key:
Assay type in all cases: cell-based
Settings in all cases: 50 ul saturated solution in 1 ml of cell media, in vitro
[1] = system: Lncap, prostate cancer cells; assay: Cancer cell proliferation assay, Lncap
Method: (§1) […] For comparison purposes, the effects of two anticancer drugs, cisplatin and paclitaxel, on the growth of the three types of cancel cells were also determined in vitro.

[2] = system: SW 480, colorectal cancer cells; assay: Cancer cell proliferation assay, SW 480
Method: as §1

HTB 72, melanoma cells = assay: Cancer cell proliferation assay, HTB 72
Method: as §1

SMILES	Inhibition, % Lncap [1]	Inhibition, % SW 480 [2]	Inhibition, % HTB 72 (HTB 72, melanoma cells)
CC(=O)O[C@H]1C(=O)[C@@]2(C)[C@H]([C@H](OC(=O)c3ccccc3)[C@]3(O)C[C@H](OC(=O)[C@H](O)[C@@H](NC(=O)c4ccccc4)c4ccccc4)C(C)=C1C3(C)C)[C@]1(OC(C)=O)CO[C@@H]1C[C@@H]2O [Paclitaxel, paclitaxel]	57.98%	0.0%	22.61%
N.N.[Cl][Pt][Cl] [Cisplatin, cisplatin]	94.91%	78.25%	93.78%
